# In patent US8828940B2, “Method of treating an ischemia-reperfusion injury-related disorder by administering GPCR ligands” (priority 2006, dated 2014):
# No end group written: not given here.
# Columns and labels:
# [1] = test system: cardiac remodeling induced by Isoproterenol in Wistar rats; experiment: Cardiac remodeling induced by Isoproterenol; assay type: in vivo, rat
# Procedure: The effect of the peptides […] (SEQ ID NO:10), […]-dimer ([…]) (SEQ ID NO9), P33_V (SEQ ID NO:7), P33-dimer (P33_D) (SEQ ID NO:6) on cardiac remodeling, was tested by determining their effect on heart hypertrophy and fibrosis (deposition of collagen I, III, and fibronectin) induced by Isoproterenol. Losartan (an antagonist of the known angiotensin II receptor, AT1, Kucharewicz et al., 2002; Hypertension, (40): 774-779) was used as positive control. The negative control group was treated with vehicle only. Additional control groups included rats not-treated with isoproterenol which were treated with the peptides, with Losartan or with the vehicle. The analysis included determination of the left ventricle mass and morphometry. In addition, immunofuorescence analysis of fibronectin and collagens I and III deposition was performed by confocal microcopy. Animals Acclimatization: Male Wistar rats Age: 13-14 weeks (250 to 300 g) were maintained in the animal facilities for 7 days before the beginning of the experiment. The animals were exposed to a brightness circle of light-dark cycle of 12hs (day-06:00 to 18:00; night-18:00 to 06:00), and the room temperature was kept at 23±2° C. Heart failure was induced by daily injections of isoproterenol (2 mg/kg/day, subcutaneously) during 7 days. […] Immunofluorescence-labeling and quantitative confocal microscopy was used to investigate the distribution and quantity of collagen types I, III and fibronectin present in the left ventricles. […] Optimal confocal settings (aperture, gain and laser power) were determined at the beginning of each imaging session and then held constant during the analysis of all the samples. […] For quantitative analysis of collagens I, III, and fibronectin, the ImageTool 2.0 image analysis program was used (see “[…] University of Texas Health Science Center at San Antonio website) to measure the fluorescence intensity in images randomly selected. […]
# MrgX2 = biological target: T1, MrgX2 (Homo sapiens, UniProt Q96LB1); experiment: Calcium flux in MrgX2-transfected CHO-K1 cells; assay type: cell-based; conditions: for calcium flux relative to the negative control: CHO-K1 co-transfected with MrgX2 and Gα16, 1 μM, about 20-90 seconds; for eliciting calcium flux compared with cortistatin-14: summary statement, MrgX2-expressing cells
# T1 construct: expressed in transfected cells; host or cells: CHO-K1 (ATCC-CCL-61), transient co-transfection
# T1 sequence (Q96LB1 1-330): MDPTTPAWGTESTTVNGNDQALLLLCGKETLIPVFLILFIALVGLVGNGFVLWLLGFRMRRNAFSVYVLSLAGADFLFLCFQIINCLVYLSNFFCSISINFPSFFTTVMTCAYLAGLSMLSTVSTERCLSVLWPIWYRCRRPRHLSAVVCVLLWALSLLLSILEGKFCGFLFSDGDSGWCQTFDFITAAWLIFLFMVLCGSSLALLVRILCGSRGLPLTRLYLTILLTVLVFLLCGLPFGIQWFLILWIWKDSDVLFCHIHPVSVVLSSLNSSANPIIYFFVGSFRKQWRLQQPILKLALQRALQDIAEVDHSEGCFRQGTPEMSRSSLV
# Procedure: (§1) The assay was carried out in CHO cells were transiently transfected with the GPCR of choice, by utilizing the promiscuous Gα16 to divert signaling to the Gq pathway, thus enabling readout of GPCR activation by testing for Calcium flux as described by Liu et al 2003 (Biomol Screen 8, 39-49).
# (§2) All the peptides thus obtained were tested for their ability to change calcium flux in CHO-K1 cells (ATCC-CCL-61) transiently co-transfected with an expression vector containing the GPCR of choice and expression vector containing the Gα16 encoding cDNA. Expression constructs containing cDNA clones for MrgX1, MrgX2, Mas or FPRL1 were commercially obtained in one of the following expression vectors: pcDNA3.1, pCMV6, or MO2.
# (§3) Transient transfections were performed using CHO-K1 cells as host cells. Cells (12 million) were plated into T75 flasks on the day preceding transfection. Cells were transfected with the appropriate GPCR expression vector and with a vector expressing Gα16 using a lipid-based reagent, MTI, according to the manufacturer's recommendation. Cells were transfected for 5 hours, then re-plated into 96-well dishes (60,000 cells per well) and grown overnight.
# (§4) On the day of the experiment, cells were loaded with Fluo-4-NW (Invitrogen) according to the manufacturer's recommendation. Plates were loaded into a FlexStation™ (Molecular Devices) plate reader and fluorescence was monitored. Seventeen seconds following initiation of reading, cells were stimulated with the indicated agonist/compound at final concentration of 1 μM. Each 96 well plate contained cells transfected with one GPCR expression vector and each of the examined peptides was tested in triplicate.
# (§5) We defined a hit as a peptide which elicited a clear and distinct increase in intracellular calcium that is clearly visible and statistically significant upon examination of the calcium trace for at least two repeats. The criterion for statistical significance was a p-value lower than 0.001 in a t-test comparing the levels of calcium before and after peptide addition.
# The ability of Peptides to change calcium flux was examined in CHO-K1 cells co-transfected with MrgX2 and Gα16.
# FPRL1 [2] = biological target: T2, FPRL1 (Homo sapiens, UniProt P25090); experiment: Calcium flux in FPRL1-transfected CHO-K1 cells; assay type: cell-based; set-up: expressed in transfected cells; host or cells: CHO-K1 (ATCC-CCL-61), transient co-transfection; conditions: for calcium flux relative to the negative control: CHO-K1 co-transfected with FPRL1 and Gα16, 1 μM, about 20-90 seconds
# T2 sequence (P25090 1-351): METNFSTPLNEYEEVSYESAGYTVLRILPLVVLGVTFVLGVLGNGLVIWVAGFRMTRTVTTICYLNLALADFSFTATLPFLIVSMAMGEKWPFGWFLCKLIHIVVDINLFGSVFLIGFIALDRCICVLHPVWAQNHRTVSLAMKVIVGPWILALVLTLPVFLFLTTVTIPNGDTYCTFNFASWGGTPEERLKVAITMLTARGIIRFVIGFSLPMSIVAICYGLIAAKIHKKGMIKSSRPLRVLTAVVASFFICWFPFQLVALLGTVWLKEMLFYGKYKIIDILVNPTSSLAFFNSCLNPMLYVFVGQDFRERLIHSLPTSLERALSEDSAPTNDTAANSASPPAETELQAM
# Procedure: as §1, §2, §3
# as §4, with “Seventeen seconds following initiation of reading, cells were stimulated with the indicated agonist/compound at final concentration of 1 μM.” left out
# as §5
# The ability of Peptides to change calcium flux was examined in CHO-K1 cells co-transfected with FPRL1 and Gα16.
# The P33-derived peptides (see FIG. 1): P33_V (SEQ ID NO:7), P33 (SEQ ID NO:6)-mono, P33 (SEQ ID NO:6)-dimer, P33—5 (SEQ ID NO:27), P33—8 (SEQ ID NO:14), P33—9 (SEQ ID NO:15) and P33—10 (SEQ ID NO:16) were tested for their ability to activate FPRL1 using the calcium flux assay in FPRL1-transfected CHO cells. […] The lack of activity of these peptides might be due to reduced potency; insufficient sensitivity of the experimental system, alternative interaction of the receptor, or activation of other pathways, which are not related to calcium flux. Thus, this interaction should be further characterized.
# Mas receptor = biological target: T3, Mas receptor (Homo sapiens, UniProt P04201); experiment: Calcium flux in Mas-transfected CHO-K1 cells; assay type: cell-based; conditions: dose response, Mas-transfected cells
# T3 construct: expressed in transfected cells; host or cells: CHO-K1 (ATCC-CCL-61), transient co-transfection
# T3 sequence (P04201 1-325): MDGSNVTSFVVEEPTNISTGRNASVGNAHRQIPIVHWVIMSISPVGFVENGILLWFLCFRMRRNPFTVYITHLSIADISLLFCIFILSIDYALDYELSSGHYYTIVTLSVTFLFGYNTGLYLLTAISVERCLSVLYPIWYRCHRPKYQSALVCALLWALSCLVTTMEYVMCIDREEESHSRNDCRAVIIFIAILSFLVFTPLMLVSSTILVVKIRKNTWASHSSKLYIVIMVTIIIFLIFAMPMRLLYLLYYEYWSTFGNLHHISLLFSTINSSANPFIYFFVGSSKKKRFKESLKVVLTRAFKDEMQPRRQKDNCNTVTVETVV
# Procedure: as §1, §2, §3, §4, §5
# Based on dose response experiments, EC50 best fit values were calculated by non-linear regression of sigmoidal dose-response curves, using Prism version 4 (GraphPad Software Inc., San Diego, Calif.). The formulae for the sigmoidal dose-response curves was defined as Y=Bottom+(Top−Bottom)/(1+10^(Log EC50−X)*HillSlope))
# The ability of Peptides to change calcium flux was examined in CHO-K1 cells co-transfected with Mas receptor and Gα16.
# The P33 monomer and dimer, as well as other P33 derivative peptides were compared for their ability to induce calcium flux in the Mas-transfected cells at 0.1, 1, 10, 100, 1000 and 10000 nM.
# FPRL1 [3] = biological target: T2, FPRL1; experiment: Competitive radioligand binding assay to FPRL1 ([125I] WKYMVm); set-up: expressed in transfected cells; host or cells: CHO cells; conditions: 0.025 nM [125I] WKYMVm; CHO transfected cells
# Procedure: The specific binding of Peptide 58 (SEQ ID NO:1) to FPRL1 was analyzed by testing its ability to compete with 0.025 nM [^125I] WKYMVm (W peptide), a known agonist of FPRL1, for binding to FPRL1 in CHO transfected cells. CKβ8-1 (aa 46-137), another known ligand of FPRL1 was used as a positive control in this assay (Chiang et al 2006, Pharmacological Reviews 58, 463-487). Peptides were incubated with cells for 90 minutes at 25° C., in the presence of Incubation Buffer (50 mM HEPES, pH 7.4, 100 mM NaCl, 5 mM KCl, 5 mM MgCl2, 2 mM Ca Cl2, 0.5% BSA) and the amount of radioactive W peptide was measured.
calcium flux relative to the negative control (MrgX2),eliciting calcium flux compared with cortistatin-14 (MrgX2),calcium flux relative to the negative control (FPRL1 [2]),Compound,further results
,,,"CCCCc1nc(Cl)c(CO)n1Cc1ccc(-c2ccccc2-c2nn[nH]n2)cc1 [Losartan, reference compound]","left ventricle to body mass ratio (LV/BW) ([1]; isoproterenol 2 mg/kg/day s.c. 7 days, peptides 1 ug/hour/Kg by osmotic minipump, Losartan 1 mg/kg once a day by gavage): did not have an effect"
increased calcium flux,superior to cortistatin-14,increased calcium flux,AAQATGPLQDNELPGLDERPPRAHAQHFHKHQLWPSPFRALKPRP (listed as Homo sapiens) [Peptide P94],
increased calcium flux,superior to cortistatin-14,,AHAQHFHKHQLWPSPFRALKPRP (listed as Homo sapiens) [Peptide 63],
,,,FLGYCIYLNRKRRGDPAFKRRLRD (also: dimer via cysteine; listed as Homo sapiens) [Peptide P61_dimer],"ability to induce calcium flux, relative potency (P61 family) (Mas receptor): more potent than the monomeric P61 peptides; heart hypertrophy as measured by deposition of Fibronectin, Collagen I and Collagen III ([1]; 1 ug/hour/Kg by osmotic minipump, partial data, 3 out of 6 animals of each group): effective in reducing the heart hypertrophy; effect as measured by Fibronectin deposition ([1]; partial data, 3 out of 6 animals, FIG. 40): not significant"
,,increased calcium flux,TIPMFVPESTSKLQKFTSWFM-NH2 [Peptide P58],"Ki (FPRL1 [3]): 54.1 nM; calcium flux (P58 family) (FPRL1 [2]; dose response, FPRL1 transfected CHO cells): elicited calcium flux"
